The text below walks through data of patent US20060057696A1, “Sugar chain synthases” (priority 2002, published 2006).

The target in experiment [1] is T1, PA-mST8Sia VI (mouse ST8Sia VI) (Mus musculus, UniProt Q8K4T1).
T1 construct: amino acids 26-398 in the case of mouse ST8Sia VI; signal peptide of mouse immunoglobulin IgM (N); made in house; host or cells: COS-7 cells, transient expression of pcDSA-mST8Sia VI; protein recovered from medium on IgG-Sepharose
T1 sequence (Q8K4T1 26-398): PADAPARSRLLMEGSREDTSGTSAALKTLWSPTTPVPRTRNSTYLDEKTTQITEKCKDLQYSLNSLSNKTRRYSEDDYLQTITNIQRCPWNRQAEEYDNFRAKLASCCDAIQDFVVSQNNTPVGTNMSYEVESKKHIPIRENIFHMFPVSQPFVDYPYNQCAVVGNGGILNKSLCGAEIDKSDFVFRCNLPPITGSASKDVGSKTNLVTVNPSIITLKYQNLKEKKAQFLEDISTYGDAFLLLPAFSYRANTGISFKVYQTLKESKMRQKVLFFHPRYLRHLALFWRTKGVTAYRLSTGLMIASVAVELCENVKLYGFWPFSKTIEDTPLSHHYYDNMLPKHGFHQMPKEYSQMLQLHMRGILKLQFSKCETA
Briefly: Sialyltransferase activity of PA-mST8Sia VI toward acceptor substrates. The format is biochemical. As to conditions: for Relative rate (%) Mouse ST8SiaVI: incorporation with Fetuin taken as 100, substrate 0.5 mg/ml glycolipids, 1 mg/ml glycoproteins, monosaccharides and oligosaccharides. As to the method: (§1) Using each expression vector and lipofectamine (Invitrogen), transient expression was carried out in COS-7 cells (Kojima, N. et al. (1995) FEBS Lett. 360, 1-4). The proteins of the present invention secreted from the cells into which each expression vector had been introduced were named as PA-mST8Sia VI (mouse) and PA-hST8Sia VI (human). PA-mST8Sia VI and PA-hST8Sia VI were adsorbed to IgG-Sepharose (Amersham Pharmacia Biotech), and were then recovered from medium. Sialyltransferase activity was measured as follows according to the method of Lee et al. (Lee, Y.-C. et al. (1999) J. Biol. Chem. 274, 11958-11967). A reaction solution (10 μl) containing 50 mM MES buffer (pH 6.0), 1 mM MgCl2, 1 mM CaCl2, 0.5% Triton CF-54, 100 μM CMP-[^14C]-NeuAc, a glycoconjugate (which was added at 0.5 mg/ml in the case of glycolipids, and at 1 mg/ml in the case of glycoproteins or oligosaccharides), and a PA-mST8Sia VI or PA-hST8Sia VI suspension, was incubated at 37° C. for 3 to 20 hours. Thereafter, in the case of glycolipids, the reaction product was purified with a C-18 column (Sep-Pak Vac 100 mg; Waters) and the purified product was used as a sample, and in the case of oligosaccharides or glycoproteins, the reaction product was directly used as a sample. Thus, the obtained samples were subjected to analysis. In the case of oligosaccharides or glycolipids, the sample was spotted on a silica gel 60 HPTLC plate (Merck), and was then developed with a developing solvent consisting of ethanol:pyridine:n-butanol:water:acetic acid=100:10:10:30:3 (for oligosaccharides), a developing solvent consisting of 1-propanol:ammonia water:water=6:1:2.5 (for oligosaccharides), or a developing solvent consisting of chloroform:methanol: 0.02% CaCl2=55:45:10 (for glycolipids). In the case of glycoproteins, analysis was carried out by SDS-polyacrylamide gel electrophoresis. The obtained radioactivities were visualized with a BAS2000 radio image analyzer (Fuji Film) and then quantified.

In experiment [2] the target is T2, PA-hST8Sia VI (human ST8Sia VI) (Homo sapiens, UniProt P61647, L267F).
T2 construct: amino acids 68-398 in the case of human ST8Sia VI; signal peptide of mouse immunoglobulin IgM (N); made in house; host or cells: COS-7 cells, transient expression of pcDSA-hST8Sia VI; protein recovered from medium on IgG-Sepharose
T2 sequence (P61647 68-398 L267F): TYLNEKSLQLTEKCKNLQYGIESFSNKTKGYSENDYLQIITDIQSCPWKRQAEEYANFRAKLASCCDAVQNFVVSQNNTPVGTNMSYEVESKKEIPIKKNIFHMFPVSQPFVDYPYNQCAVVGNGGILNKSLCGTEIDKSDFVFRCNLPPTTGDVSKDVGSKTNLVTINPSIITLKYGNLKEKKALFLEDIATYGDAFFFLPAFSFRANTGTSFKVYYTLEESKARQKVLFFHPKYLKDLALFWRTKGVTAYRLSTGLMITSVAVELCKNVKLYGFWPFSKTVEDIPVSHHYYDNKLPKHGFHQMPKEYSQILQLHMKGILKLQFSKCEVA
Briefly: Sialyltransferase activity of PA-hST8Sia VI toward acceptor substrates. Format: biochemical. As to conditions: incorporation with Fetuin taken as 100, substrate 0.5 mg/ml glycolipids, 1 mg/ml glycoproteins, monosaccharides and oligosaccharides. Here is the method:
as §1

Turning to `CC(=O)NC1C(O)CC(OCC2OC(OC3C(CO)OC(O)C(O)C3O)C(O)C(O)C2O)(C(=O)O)OC1C(O)C(O)CO` (stereo not drawn) [6′-Sialyllactose, NeuAcα2,6Galβ1,4Glc], the “Relative rate (%) Mouse ST8SiaVI” value in experiment [1] came out at 91.5%. Also, the “Relative rate (%) Human ST8Sia VI” value in experiment [2] amounted to 10.7%.
On to “NeuAcα2,3Galβ1,3GalNAcβ1,4(NeuAca2,3)Galβ1,4Glcβ1-Cer [GD1a]”, for which, in experiment [1], the “activity of PA-mST8Sia VI on the substrate (in words)” value is recorded as “showed activity” and the “Relative rate (%) Mouse ST8SiaVI” value was 6.0%. Besides, the “Relative rate (%) Human ST8Sia VI” value in experiment [2] amounted to 1.8%.
For “NeuAcα2,8Galβ1,3GalNAcβ1,4(NeuAcα2,8NeuAcα2,3)Galβ1,4Glcβ1-Cer [GT1b]”, in that order: “showed activity”, 1.1% and 2.2%.
Regarding “NeuAcα2,8NeuAcα2,3Galβ1,4Glcβ1-Cer [GD3]”, in experiment [1], the “Relative rate (%) Mouse ST8SiaVI” value was found to be 0%. Further, the “Relative rate (%) Human ST8Sia VI” value in experiment [2] is on record as 0%.
On to “NeuAcα2,8NeuAcα2,8Galβ1,3GalNAcβ1,4(NeuAcα2,8NeuAcα2,3)Galβ1,4Glcβ1-Cer [GQ1b]”, for which, in experiment [1], the “Relative rate (%) Mouse ST8SiaVI” value amounted to 0%. Also, the “Relative rate (%) Human ST8Sia VI” value in experiment [2] is reported as 0%.
